Among the data in patent US12514938B2, “Fibroblast activation protein targeting peptides” (PERSPECTIVE THERAPEUTICS, INC., priority 2023, dated 2026) are Ki values, retold here.

The Ki is a measure of affinity in units of concentration, obtained from inhibition or displacement.

Each structure is given as a SMILES string. *1 amine or outer side, *2 acyl side, *3 side chain or, on linkers, in order; H or OH if unused. Where a SMILES comes first, the peptide text is derived from it. Bridges are numbered along the chain shown (N, C = ends). [ ]: non-standard residue; d: D form. The star is where a group is joined. X2 = NC(=O)CN1CCN(CC(=O)O)CCN(CC(=O)NCCOCCOCCC(=O)NCCSCc2cc(C[*:1])cc(C[*:2])c2)CCN(CC(=O)O)CC1; X1 = NC(=O)CN1CCN(CC(=O)O)CCN(CC(=O)*)CCN(CC(=O)O)CC1; 1Nal = N[C@@H](Cc1cccc2ccccc12)C(=O)O; 2Nal = N[C@@H](Cc1ccc2ccccc2c1)C(=O)O; mXylylene = c1cc(C[*:1])cc(C[*:2])c1; oXylylene = c1ccc(C[*:2])c(C[*:1])c1; Bta = N[C@@H](Cc1csc2ccccc12)C(=O)O; 3Pal = N[C@@H](Cc1cccnc1)C(=O)O; PEG3 = NCCOCCOCCOCCC(=O)O; PEG2 = NCCOCCOCCC(=O)O; Butyryl = CCCC(=O)*; PEG1 = NCCOCCC(=O)O

The target in the assay is T1, Human Fibroblast Activation Protein (FAP) (Homo sapiens, UniProt Q12884).
T1 sequence (Q12884 1-760): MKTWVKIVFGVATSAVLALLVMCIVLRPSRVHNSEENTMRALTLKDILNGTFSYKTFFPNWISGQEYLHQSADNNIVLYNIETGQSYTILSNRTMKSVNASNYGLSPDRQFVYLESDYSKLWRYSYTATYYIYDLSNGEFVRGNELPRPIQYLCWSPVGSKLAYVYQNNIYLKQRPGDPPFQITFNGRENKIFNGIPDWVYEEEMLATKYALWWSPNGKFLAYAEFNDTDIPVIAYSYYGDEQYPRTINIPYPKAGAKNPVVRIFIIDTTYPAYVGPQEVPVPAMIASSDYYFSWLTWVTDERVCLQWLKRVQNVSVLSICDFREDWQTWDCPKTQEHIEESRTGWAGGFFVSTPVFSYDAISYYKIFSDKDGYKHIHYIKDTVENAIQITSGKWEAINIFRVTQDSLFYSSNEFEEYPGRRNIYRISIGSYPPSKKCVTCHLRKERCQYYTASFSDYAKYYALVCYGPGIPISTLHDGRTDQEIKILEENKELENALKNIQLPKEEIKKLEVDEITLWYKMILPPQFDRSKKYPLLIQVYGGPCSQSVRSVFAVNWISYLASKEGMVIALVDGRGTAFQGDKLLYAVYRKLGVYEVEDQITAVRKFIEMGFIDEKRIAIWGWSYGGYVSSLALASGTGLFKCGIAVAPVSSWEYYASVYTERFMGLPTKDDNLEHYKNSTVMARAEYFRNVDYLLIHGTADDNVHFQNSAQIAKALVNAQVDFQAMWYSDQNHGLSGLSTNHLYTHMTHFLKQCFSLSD
Nature of the assay: Enzyme inhibition assay against human FAP (substrate Z-GP-AMC), Example 1. Particulars: human FAP 5 ng/well, 50 μM Z-GP-AMC; Ki from IC50 by Cheng-Prusoff. In kind it is biochemical. As for the experimental part:
Binding Affinity Against Human Fibroblast Activation Protein (FAP)
An enzyme inhibition assay was performed to determine IC50 values and then the Cheng-Prusoff equation used to calculate the Ki given a known Km of the substrate Z-GP-AMC for FAP. To perform the assay, FAP (5 ng/well) and the test peptide at varying concentrations (i.e. 10^−6 to 10^−12) were incubated in a black 96-well plate for 10 minutes at RT on a shaker plate. Then, the substrate Z-GP-AMC was added to give a final concentration of 50 μM. The total reaction volume per well was 100 μL The reaction was allowed to incubate at RT on a shaker plate for 1 hour protected from light, and then fluorescence read with a BioTek Synergy LX plate reader at an ex/em (360/40 and 460/40). Experiments were performed in at least duplicate, and controls of buffer only, buffer and FAP enzyme, and buffer with substrate and FAP enzyme only were included for comparison. The buffer used for the assay was 50 mM Tris-HCl, 1M NaCl, and 1 mg/mL BSA, pH=7.5. Data was plotted in GraphPad Prism and non-linear regression used to calculate IC50 values. The compounds tested and Ki values of each were as follows: […]
Take `C[C@@H](O)[C@@H]1NC(=O)[C@@H](NC(=O)[C@H](CC(=O)O)NC(=O)CCOCCOCCNC(=O)CN2CCN(CC(=O)O)CCN(CC(N)=O)CCN(CC(=O)O)CC2)CSCc2ccccc2CSC[C@@H](C(N)=O)NC(=O)[C@H](Cc2c[nH]c3ccccc23)NC(=O)[C@H](Cc2c[nH]c3ccccc23)NC(=O)[C@H](CCC(N)=O)NC(=O)[C@H](CCC(=O)O)NC(=O)[C@H](Cc2ccccc2)NC(=O)[C@@H]2CCCN2C1=O` [VMT-FAP-2-41, PSC-PEG2-D-[C(oXdB)TPFEQWWC]-NH2] ({X1-PEG2}-DCTPFEQWWC-NH2; linker 2-10 via oXylylene): the Ki amounted to 190 pM.

As for `C[C@@H](O)[C@@H]1NC(=O)[C@@H](NC(=O)[C@H](CO)NC(=O)CCOCCOCCNC(=O)CN2CCN(CC(=O)O)CCN(CC(N)=O)CCN(CC(=O)O)CC2)CSCc2ccccc2CSC[C@@H](C(N)=O)NC(=O)[C@H](Cc2c[nH]c3ccccc23)NC(=O)[C@H](Cc2c[nH]c3ccccc23)NC(=O)[C@H](CCC(N)=O)NC(=O)[C@H](CCC(=O)O)NC(=O)[C@H](Cc2c[nH]c3ccccc23)NC(=O)[C@@H]2CCCN2C1=O` [VMT-FAP-2-42, PSC-PEG2-S-[C(oXdB)TPWEQWWC]-NH2] ({X1-PEG2}-SCTPWEQWWC-NH2; linker 2-10 via oXylylene), the Ki came out at 290 pM.

Take `C[C@@H](O)[C@@H]1NC(=O)[C@@H](NC(=O)[C@H](CO)NC(=O)CCOCCOCCNC(=O)CN2CCN(CC(=O)O)CCN(CC(N)=O)CCN(CC(=O)O)CC2)CSCc2ccccc2CSC[C@@H](C(N)=O)NC(=O)[C@H](Cc2c[nH]c3ccccc23)NC(=O)[C@H](Cc2c[nH]c3ccccc23)NC(=O)[C@H](CCC(=O)O)NC(=O)[C@H](CCC(=O)O)NC(=O)[C@H](Cc2ccccc2)NC(=O)[C@@H]2CCCN2C1=O` [VMT-FAP-2-43, PSC-PEG2-S-[C(oXdB)TPFEEWWC]-NH2] ({X1-PEG2}-SCTPFEEWWC-NH2; linker 2-10 via oXylylene): the Ki was found to be 70 pM.

On to `C[C@@H](O)[C@@H]1NC(=O)[C@@H](NC(=O)[C@H](CO)NC(=O)CCOCCOCCNC(=O)CN2CCN(CC(=O)O)CCN(CC(N)=O)CCN(CC(=O)O)CC2)CSCc2cccc(c2)CSC[C@@H](C(N)=O)NC(=O)[C@H](Cc2c[nH]c3ccccc23)NC(=O)[C@H](Cc2c[nH]c3ccccc23)NC(=O)[C@H](CCC(N)=O)NC(=O)[C@H](CCC(=O)O)NC(=O)[C@H](Cc2c[nH]c3ccccc23)NC(=O)[C@@H]2CCCN2C1=O` [VMT-FAP-2-48, PSC-PEG2-S-[C(mXdB)TPWEQWWC]-NH2] ({X1-PEG2}-SCTPWEQWWC-NH2; linker 2-10 via mXylylene), for which the Ki stood at 350 pM.

In the case of `CC(=O)N[C@H]1CSCc2cc(CSCCNC(=O)CCOCCOCCNC(=O)CN3CCN(CC(=O)O)CCN(CC(N)=O)CCN(CC(=O)O)CC3)cc(c2)CSC[C@@H](C(N)=O)NC(=O)[C@H](Cc2c[nH]c3ccccc23)NC(=O)[C@H](Cc2c[nH]c3ccccc23)NC(=O)[C@H](CCC(N)=O)NC(=O)[C@H](CCC(=O)O)NC(=O)[C@H](Cc2c[nH]c3ccccc23)NC(=O)[C@@H]2CCCN2C(=O)[C@H]([C@@H](C)O)NC1=O` [VMT-FAP-2-51, Ac-[C(mXtB(CA-PEG2-PSC))TPWEQWWC]-NH2] (Ac-CTPWEQWWC-NH2; linker 1-9 via X2), the Ki amounted to 280 pM.

`C[C@@H](O)[C@@H]1NC(=O)[C@@H](NC(=O)[C@H](CO)NC(=O)CCOCCOCCNC(=O)CN2CCN(CC(=O)O)CCN(CC(N)=O)CCN(CC(=O)O)CC2)CSCc2ccccc2CSC[C@@H](C(N)=O)NC(=O)[C@H](Cc2c[nH]c3ccccc23)NC(=O)[C@H](Cc2c[nH]c3ccccc23)NC(=O)[C@H](CCC(N)=O)NC(=O)[C@H](CCC(=O)O)NC(=O)[C@H](Cc2ccc3ccccc3c2)NC(=O)[C@@H]2CCCN2C1=O` [VMT-FAP-2-53, PSC-PEG2-[SC(oXdB)TP2-NalEQWWC]-NH2] ({X1-PEG2}-SCTP[2Nal]EQWWC-NH2; linker 2-10 via oXylylene): the Ki was 340 pM.

On to `CC(=O)N[C@@H](CO)C(=O)N[C@H]1CSCc2cc(CSCCNC(=O)CCOCCOCCNC(=O)CN3CCN(CC(=O)O)CCN(CC(N)=O)CCN(CC(=O)O)CC3)cc(c2)CSC[C@@H](C(N)=O)NC(=O)[C@H](Cc2c[nH]c3ccccc23)NC(=O)[C@H](Cc2c[nH]c3ccccc23)NC(=O)[C@H](CCC(N)=O)NC(=O)[C@H](CCC(=O)O)NC(=O)[C@H](Cc2c[nH]c3ccccc23)NC(=O)[C@@H]2CCCN2C(=O)[C@H]([C@@H](C)O)NC1=O` [VMT-FAP-2-55, Ac-S-[C(mXtB(CA-PEG2-PSC))TPWEQWWC]-NH2] (Ac-SCTPWEQWWC-NH2; linker 2-10 via X2), for which the Ki is 1120 pM.

Take `CCCC(=O)N[C@H]1CSCc2cc(CSCCNC(=O)CCOCCOCCNC(=O)CN3CCN(CC(=O)O)CCN(CC(N)=O)CCN(CC(=O)O)CC3)cc(c2)CSC[C@@H](C(N)=O)NC(=O)[C@H](Cc2c[nH]c3ccccc23)NC(=O)[C@H](Cc2c[nH]c3ccccc23)NC(=O)[C@H](CCC(N)=O)NC(=O)[C@H](CCC(=O)O)NC(=O)[C@H](Cc2c[nH]c3ccccc23)NC(=O)[C@@H]2CCCN2C(=O)[C@H]([C@@H](C)O)NC1=O` [VMT-FAP-2-57, But-[C(mXtB(CA-PEG2-PSC))TPWEQWWC]-NH2] (Butyryl-CTPWEQWWC-NH2; linker 1-9 via X2): the Ki worked out at 710 pM.

With `C[C@@H](O)[C@@H]1NC(=O)[C@@H](NC(=O)[C@H](CO)NC(=O)CCOCCOCCNC(=O)CN2CCN(CC(=O)O)CCN(CC(N)=O)CCN(CC(=O)O)CC2)CSCc2ccccc2CSC[C@@H](C(N)=O)NC(=O)[C@H](Cc2c[nH]c3ccccc23)NC(=O)[C@H](Cc2c[nH]c3ccccc23)NC(=O)[C@H](CCC(N)=O)NC(=O)[C@H](CCC(=O)O)NC(=O)[C@H](Cc2cccc3ccccc23)NC(=O)[C@@H]2CCCN2C1=O` [VMT-FAP-2-60, PSC-PEG2-S-[C(oXdB)TP1-NalEQWWC]-NH2] ({X1-PEG2}-SCTP[1Nal]EQWWC-NH2; linker 2-10 via oXylylene), the Ki was 480 pM.

For the compound `C[C@@H](O)[C@@H]1NC(=O)[C@@H](NC(=O)[C@H](CO)NC(=O)CCOCCOCCNC(=O)CN2CCN(CC(=O)O)CCN(CC(N)=O)CCN(CC(=O)O)CC2)CSCc2ccccc2CSC[C@@H](C(N)=O)NC(=O)[C@H](Cc2c[nH]c3ccccc23)NC(=O)[C@H](Cc2c[nH]c3ccccc23)NC(=O)[C@H](CCC(N)=O)NC(=O)[C@H](CCC(=O)O)NC(=O)[C@H](Cc2csc3ccccc23)NC(=O)[C@@H]2CCCN2C1=O` [VMT-FAP-2-61, PCS-PEG2-S-[C(oXdB)TPBtaEQWWC]-NH2] ({X1-PEG2}-SCTP[Bta]EQWWC-NH2; linker 2-10 via oXylylene), the inhibition constant (Ki) stood at 300 pM.

For `C[C@@H](O)[C@@H]1NC(=O)[C@@H](NC(=O)[C@H](CO)NC(=O)CCOCCOCCNC(=O)CN2CCN(CC(=O)O)CCN(CC(N)=O)CCN(CC(=O)O)CC2)CSCc2ccccc2CSC[C@@H](C(N)=O)NC(=O)[C@H](Cc2c[nH]c3ccccc23)NC(=O)[C@H](Cc2c[nH]c3ccccc23)NC(=O)[C@H](CCC(N)=O)NC(=O)[C@H](CCC(=O)O)NC(=O)[C@H](Cc2cccnc2)NC(=O)[C@@H]2CCCN2C1=O` [VMT-FAP-2-62, PCS-PEG2-S-[C(oXdB)TP3-PalEQWWC]-NH2] ({X1-PEG2}-SCTP[3Pal]EQWWC-NH2; linker 2-10 via oXylylene), the Ki amounted to 610 pM.

Turning to `C[C@@H](O)[C@@H]1NC(=O)[C@@H](NC(=O)CCOCCNC(=O)CN2CCN(CC(=O)O)CCN(CC(N)=O)CCN(CC(=O)O)CC2)CSCc2ccccc2CSC[C@@H](C(N)=O)NC(=O)[C@H](Cc2c[nH]c3ccccc23)NC(=O)[C@H](Cc2c[nH]c3ccccc23)NC(=O)[C@H](CCC(N)=O)NC(=O)[C@H](CCC(=O)O)NC(=O)[C@H](Cc2c[nH]c3ccccc23)NC(=O)[C@@H]2CCCN2C1=O` [VMT-FAP-2-67, PSC-PEG1-[C(oXdB)TPWEQWWC]-NH2] ({X1-PEG1}-CTPWEQWWC-NH2; linker 1-9 via oXylylene), the Ki is 80 pM.

On to `C[C@@H](O)[C@@H]1NC(=O)[C@@H](NC(=O)CCOCCOCCOCCNC(=O)CN2CCN(CC(=O)O)CCN(CC(N)=O)CCN(CC(=O)O)CC2)CSCc2ccccc2CSC[C@@H](C(N)=O)NC(=O)[C@H](Cc2c[nH]c3ccccc23)NC(=O)[C@H](Cc2c[nH]c3ccccc23)NC(=O)[C@H](CCC(N)=O)NC(=O)[C@H](CCC(=O)O)NC(=O)[C@H](Cc2c[nH]c3ccccc23)NC(=O)[C@@H]2CCCN2C1=O` [VMT-FAP-2-68, PSC-PEG3-[C(oXdB)TPWEQWWC]-NH2] ({X1-PEG3}-CTPWEQWWC-NH2; linker 1-9 via oXylylene), for which the Ki was 640 pM.
